Some test systems named below: ACHN renal; SR leukemia; SW-620 colon; OVCAR-5 ovarian; HCT-116 colon; M14 melanoma; COLO 205 colon; HOP-62 NSCLC; T-47D breast; NCI-H226 lung.
What all share (assay): DTP human tumour cell line panel, 48 h

Where “and” joins values, the source holds several entries; their conditions need not be identical. Equal values may be shown once.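 Method: 48-hour compound exposure of cells in 96-well plates, five concentrations, linear interpolation of endpoints. At the GI50, growth is halved. Definition used: TGI = concentration required for complete inhibition of growth.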

This note sets out measurements from PubChem BioAssay (NCI).

In the case of `NC(=O)c1ccc(I)c([N+](=O)[O-])c1`, the GI50 (as a rule, the concentration giving 50% growth inhibition) in the assay on ACHN renal is more than 69.3 µM; with SR leukemia, 32.8 µM; in the assay on SW-620 colon it was more than 100 µM; in the assay on OVCAR-5 ovarian it was 25.5 µM; in the assay with HCT-116 colon it was more than 100 µM; in the assay with M14 melanoma, more than 86 µM. Further, the GI50 with COLO 205 colon is more than 100 µM; with HOP-62 NSCLC, more than 100 µM; in the assay on T-47D breast, 35.8 µM; in the assay on NCI-H226 lung it was more than 100 µM. The TGI – broadly, the concentration giving total growth inhibition – with ACHN renal was more than 100 µM; in the assay on SR leukemia it was more than 100 µM; in the assay on SW-620 colon, more than 100 µM; with OVCAR-5 ovarian, more than 68.1 µM; in the assay with HCT-116 colon, more than 100 µM; in the assay on M14 melanoma it was more than 100 µM. Moreover, the TGI in the assay with COLO 205 colon, in the assay with HOP-62 NSCLC, with T-47D breast and in the assay with NCI-H226 lung was more than 100 µM throughout.
Take `COC(=O)[C@@H](C)C[C@H](Cc1ccc(F)cc1)NC(=O)c1csc([C@@H](C[C@H](C(C)C)N(C)C(=O)[C@@H](NC(=O)[C@H]2CCCCN2C)C2CC2)OC(C)=O)n1`: the GI50 with ACHN renal was 1.98 µM; in the assay on SR leukemia, 0.0282 µM; in the assay with SW-620 colon it was 0.129 µM; with OVCAR-5 ovarian it was 1.07 µM; in the assay with HCT-116 colon, 0.116 µM; in the assay on M14 melanoma it was 0.157 µM. Further, the GI50 was 0.184 µM with COLO 205 colon, 0.559 µM in the assay with HOP-62 NSCLC, more than 25 µM in the assay on T-47D breast and 1.26 µM with NCI-H226 lung. Besides, the TGI with ACHN renal was more than 25 µM; in the assay on SR leukemia, more than 25 µM; in the assay with SW-620 colon, more than 25 µM; with OVCAR-5 ovarian it was more than 25 µM; in the assay with HCT-116 colon it was more than 9.49 µM; in the assay on M14 melanoma, more than 5.99 µM. The total growth inhibition concentration (TGI) is 1.47 µM in the assay with COLO 205 colon, more than 25 µM in the assay on HOP-62 NSCLC, more than 25 µM in the assay on T-47D breast and more than 13.9 µM with NCI-H226 lung.
Regarding `CC(C)(C)c1cc[n+](C[n+]2ccc(C(C)(C)C)cc2)cc1`, the TGI with ACHN renal, in the assay on SR leukemia, in the assay with SW-620 colon, in the assay on OVCAR-5 ovarian, with HCT-116 colon and in the assay on M14 melanoma was more than 100 µM each time. Moreover, the TGI with COLO 205 colon, with HOP-62 NSCLC, in the assay with T-47D breast and with NCI-H226 lung was more than 100 µM throughout.
Regarding `CC1(C)N=C(N)N=C(N)N1c1cccc(CCCCc2ccc(Cl)c(S(=O)(=O)F)c2)c1`, the GI50 with ACHN renal was 20.9 µM; with SR leukemia, 2.44 µM; with SW-620 colon, 0.455 µM; in the assay with OVCAR-5 ovarian, 6.02 µM; in the assay with HCT-116 colon it was 0.457 µM; in the assay with M14 melanoma, 3.21 µM. Also, the GI50 in the assay with COLO 205 colon is 1.75 µM; in the assay on HOP-62 NSCLC it was 6.34 µM; in the assay on T-47D breast, 13.8 µM; in the assay with NCI-H226 lung it was 8.38 µM. Also, the TGI is more than 100 µM with ACHN renal; 16.8 µM with SR leukemia; 15.8 µM with SW-620 colon; 22.1 µM in the assay on OVCAR-5 ovarian; 13.5 µM in the assay on HCT-116 colon; 17.4 µM in the assay with M14 melanoma. In addition, the TGI came to 18.6 µM with COLO 205 colon, 21.2 µM in the assay on HOP-62 NSCLC, 30.9 µM in the assay with T-47D breast and 28.5 µM in the assay on NCI-H226 lung.
In the case of `[Mn+3].[O-][Cl+3]([O-])([O-])O.[O-]c1ccccc1C=NCCN1CC1.[O-]c1ccccc1C=NCCN1CC1`, the GI50 was 23.5 µM in the assay with ACHN renal; 18.4 µM in the assay on SR leukemia; 17.1 µM with SW-620 colon; 37.6 µM with OVCAR-5 ovarian; 15.1 µM in the assay on HCT-116 colon; 26.9 µM in the assay with M14 melanoma. Besides, the GI50 is 28.9 µM in the assay on COLO 205 colon, 28.6 µM with HOP-62 NSCLC, 20.3 µM in the assay on T-47D breast and 12.3 µM in the assay with NCI-H226 lung. Besides, the TGI in the assay on ACHN renal is 72.9 µM; with SR leukemia, 39.4 µM; in the assay on SW-620 colon it was more than 100 µM; with OVCAR-5 ovarian, more than 100 µM; with HCT-116 colon, more than 100 µM; in the assay with M14 melanoma, more than 100 µM. For the same compound, the TGI in the assay on COLO 205 colon is 97.3 µM; in the assay on HOP-62 NSCLC, more than 100 µM; in the assay on T-47D breast, more than 100 µM; in the assay with NCI-H226 lung, 35.8 µM.
In the case of `C[C@]1(c2nc3c(C(N)=O)cccc3[nH]2)CCCN1`, the GI50 in the assay on ACHN renal is 41.8 µM and > 100 µM; in the assay with SR leukemia, 19.5 µM and 10.4 µM; in the assay on SW-620 colon, 89.4 µM and > 100 µM; with OVCAR-5 ovarian, 23.5 µM and > 75 µM; in the assay on HCT-116 colon, 48.2 µM and 65.7 µM; in the assay on M14 melanoma it was more than 100 µM. Besides, the GI50 is 72.8 µM and > 100 µM in the assay with COLO 205 colon; more than 100 µM in the assay with HOP-62 NSCLC; 68.4 µM and > 100 µM in the assay with T-47D breast; 50.6 µM and > 74.5 µM in the assay with NCI-H226 lung. In addition, the concentration for total growth inhibition (TGI) in the assay with ACHN renal is more than 100 µM; in the assay on SR leukemia it was > 90 µM and 51.4 µM; in the assay with SW-620 colon, more than 100 µM; in the assay on OVCAR-5 ovarian it was more than 100 µM; with HCT-116 colon, more than 100 µM; with M14 melanoma it was more than 100 µM. Besides, the TGI with COLO 205 colon, in the assay on HOP-62 NSCLC, in the assay with T-47D breast and in the assay with NCI-H226 lung was more than 100 µM in each case.
`CCCCCCCC(=O)Nc1nc2[nH]c(CN3CCN(Cc4cccc(I)c4)CC3)c(CN3CCN(Cc4cccc(I)c4)CC3)c2c(=O)[nH]1`: the GI50 in the assay on ACHN renal was 0.892 µM; in the assay with SR leukemia, 0.238 µM; with SW-620 colon, 0.848 µM; in the assay on OVCAR-5 ovarian, 0.852 µM; in the assay on HCT-116 colon, 0.848 µM; with M14 melanoma, 0.882 µM. The GI50 was 0.972 µM with COLO 205 colon, 0.936 µM in the assay on HOP-62 NSCLC, 0.993 µM in the assay with T-47D breast and 1.16 µM in the assay on NCI-H226 lung. In addition, the TGI in the assay with ACHN renal worked out at 1.61 µM; in the assay with SR leukemia it was 1.06 µM; with SW-620 colon, 1.63 µM; in the assay on OVCAR-5 ovarian it was 1.57 µM; in the assay with HCT-116 colon it was 1.59 µM; in the assay on M14 melanoma it was 1.77 µM. For the same compound, the TGI turned out to be 1.97 µM with COLO 205 colon, 2.06 µM with HOP-62 NSCLC, 2.18 µM in the assay on T-47D breast and 2.59 µM in the assay on NCI-H226 lung.
Consider `CCC(CO)Nc1nc(NCc2ccccc2)c2n[nH]c(C(C)C)c2n1` (stereo not given), for which the GI50 with ACHN renal was 4.42 µM; with SR leukemia, 3.24 µM; in the assay with SW-620 colon, 4.76 µM; with OVCAR-5 ovarian, 13.4 µM; with HCT-116 colon it was 4.03 µM; in the assay on M14 melanoma it was 6.21 µM. The GI50 in the assay with COLO 205 colon was 4.45 µM; in the assay with HOP-62 NSCLC, 13.9 µM; with T-47D breast it was 16 µM; with NCI-H226 lung it was 23.8 µM. The TGI is 16.9 µM with ACHN renal; 10.6 µM in the assay with SR leukemia; 18 µM with SW-620 colon; 36 µM in the assay with OVCAR-5 ovarian; 14.5 µM with HCT-116 colon; 20.2 µM in the assay with M14 melanoma. The concentration for total growth inhibition (TGI) in the assay with COLO 205 colon is 17.1 µM; with HOP-62 NSCLC it was 31.8 µM; in the assay on T-47D breast it was 41.2 µM; in the assay with NCI-H226 lung it was 60.8 µM.
